Columns and labels:
Format in all cases: in vivo
[1] = tested on: Ctenocephalides felis; experiment: Ctenocephalides felis in vitro contact test with adult cat fleas; settings: application rate 5 μg/cm^2 (=500 g/ha); after 48 h
Method: Ctenocephalides felis—In Vitro Contact Tests with Adult Cat Fleas
(§1) For the coating of the test tubes, 9 mg of active compound are first dissolved in 1 ml of acetone p.a. and then diluted to the desired concentration with acetone p.a. 250 μl of the solution are distributed homogeneously on the inner walls and the base of a 25 ml glass tube by turning and rocking on an orbital shaker (rocking rotation at 30 rpm for 2 h). With 900 ppm of active compound solution and internal surface area 44.7 cm^2, given homogeneous distribution, an area-based dose of 5 μg/cm^2 is achieved.
After the solvent has evaporated off, the tubes are populated with 5-10 adult cat fleas (Ctenocephalides felis), sealed with a perforated plastic lid and incubated in a horizontal position at room temperature and ambient humidity. After 48 h, efficacy is determined. To this end, the tubes are stood upright and the fleas are knocked to the base of the tube. Fleas which remain motionless at the base or move in an uncoordinated manner are considered to be dead or moribund.
100% efficacy means that all the fleas were dead or moribund. 0% efficacy means that no fleas were harmed.

[2] = tested on: Rhipicephalus sanguineus; experiment: Rhipicephalus sanguineus in vitro contact test with adult brown dog ticks; settings: application rate 5 μg/cm^2 (=500 g/ha); after 48 h
Method: Rhipicephalus sanguineus—In Vitro Contact Tests with Adult Brown Dog Ticks
as §1
After the solvent has evaporated off, the tubes are populated with 5-10 adult dog ticks (Rhipicephalus sanguineus), sealed with a perforated plastic lid and incubated in a horizontal position in the dark at room temperature and ambient humidity. After 48 h, efficacy is determined. To this end, the ticks are knocked to the base of the tube and incubated on a hotplate at 45-50° C. for not more than 5 min. Ticks which remain motionless on the base or move in such an uncoordinated manner that they are unable to deliberately avoid the heat by climbing upwards are considered to be dead or moribund.
An efficacy of 100% means that all the ticks were dead or moribund. 0% efficacy means that none of the ticks were harmed.

[3] = tested on: Boophilus microplus; experiment: Boophilus microplus injection test; settings: application rate 20 μg/animal, after 7 days; for pest or weed control at 0.02 mg: Rhipicephalus microplus, 168 h, read-out: efficacy (laying of fertile eggs)
Method: Boophilus microplus—Injection Test
(§2) Solvent: dimethyl sulfoxide
To produce a suitable active compound formulation, 10 mg of active compound are mixed with 0.5 ml of solvent and the concentrate is diluted to the desired concentration with solvent.
1 μl of the active compound solution is injected into the abdomen of 5 engorged adult female cattle ticks (Boophilus microplus). The animals are transferred into dishes and kept in a climate-controlled room.
Efficacy is assessed after 7 days by laying of fertile eggs. Eggs which are not visibly fertile are stored in a climate-controlled cabinet until the larvae hatch after about 42 days. An efficacy of 100% means that none of the ticks has laid any fertile eggs; 0% means that all the eggs are fertile.

[4] = tested on: Lucilia cuprina; experiment: Lucilia cuprina test; settings: application rate 100 ppm; L1 larvae; after 2 days
Method: as §2
To produce a suitable active compound formulation, 10 mg of active compound are mixed with 0.5 ml of dimethyl sulfoxide, and the concentrate is diluted with water to the desired concentration.
About 20 L1 larvae of the Australian sheep blowfly (Lucilia cuprina) are transferred into a test vessel containing minced horsemeat and the active compound formulation of the desired concentration.
After 2 days, the kill in % is determined. 100% means that all the larvae have been killed; 0% means that no larvae have been killed.

[5] = tested on: Spodoptera frugiperda; experiment: Spodoptera frugiperda spray test; settings: application rate 500 g/ha, after 7 days
Method: Spodoptera frugiperda—Spray Test
(§3) Solvent: 78.0 parts by weight of acetone • • 1.5 parts by weight of dimethylformamide
(§4) Emulsifier: alkylaryl polyglycol ether
(§5) To produce a suitable active compound formulation, 1 part by weight of active compound is dissolved with the specified parts by weight of solvent and made up to the desired concentration with water containing an emulsifier concentration of 1000 ppm. To produce further test concentrations, the formulation is diluted with emulsifier-containing water.
Leaf discs of maize (Zea mays) are sprayed with an active compound formulation of the desired concentration and, after drying, populated with caterpillars of the fall armyworm (Spodoptera frugiperda).
After 7 days, the efficacy in % is determined. 100% means that all the caterpillars have been killed; 0% means that no caterpillar has been killed.

[6] = tested on: Tetranychus urticae; experiment: Tetranychus urticae spray test, OP-resistant; settings: after 6 days
Method: Tetranychus urticae—Spray Test, OP-Resistant
Solvent: 78.0 Parts by Weight of Acetone • • 1.5 parts by weight of dimethylformamide
as §4, §5
Discs of bean leaves (Phaseolus vulgaris) infested with all stages of the greenhouse red spider mite (Tetranychus urticae) are sprayed with an active compound formulation of the desired concentration.
After 6 days, the efficacy in % is determined. 100% means that all the spider mites have been killed; 0% means that no spider mites have been killed.

[7] = tested on: Phaedon cochleariae; experiment: Phaedon cochleariae spray test; settings: application rate 500 g/ha; after 7 days
Method: Phaedon cochleariae—Spray Test
as §3, §4, §5
Discs of Chinese cabbage leaves (Brassica pekinensis) are sprayed with an active compound formulation of the desired concentration and, after drying, populated with larvae of the mustard beetle (Phaedon cochleariae).
After 7 days, the efficacy in % is determined. 100% means that all the beetle larvae have been killed; 0% means that no beetle larvae have been killed.

[8] = tested on: Anopheles gambiae strain RSPH (homozygot kdr); experiment: Anopheles test (ANPHGB surface treatment); settings: 24 hours after contact, read-out: efficacy (mortality in %)
Method: Anopheles Test (ANPHGB Surface Treatment)
Solvent: acetone+2000 ppm rapeseed oil methyl ester (RME)
To produce an appropriate active compound formulation, the active compound is dissolved in the solvent (2 mg/ml). The active compound formulation is pipetted onto a glazed tile and, after it has dried off, adult mosquitoes of the species Anopheles gambiae strain RSPH (homozygot kdr) are placed onto the treated tile. The exposure time is 30 minutes.
24 hours after contact with the treated surface, mortality in % is determined. 100% means that all mosquitoes have been killed; 0% means that none of the mosquitoes have been killed.

[9] = tested on: Ctenocephalides felis; experiment: Ctenocephalides felis oral test; settings: application rate 100 ppm in citrated cattle blood; after 2 days
Method: Ctenocephalides felis—Oral Test
as §2
To produce a suitable active compound formulation, 10 mg of active compound are mixed with 0.5 ml of dimethyl sulfoxide. Dilution with citrated cattle blood gives the desired concentration.
About 20 unfed adult cat fleas (Ctenocephalides felis) are placed into a chamber which is closed at the top and bottom with gauze. A metal cylinder whose bottom end is closed with parafilm is placed onto the chamber. The cylinder contains the blood/active compound formulation, which can be imbibed by the fleas through the parafilm membrane.
After 2 days, the kill in % is determined. 100% means that all of the fleas have been killed; 0% means that none of the fleas have been killed.

Row | Compound | efficacy (fleas dead or moribund) [1] | efficacy (ticks dead or moribund) [2] | efficacy (laying of fertile eggs) [3] | efficacy (kill in %) [4] | efficacy [5] | efficacy ([6]; application rate 500 g/ha) | efficacy [7] | efficacy ([6]; application rate 100 g/ha) | pest or weed control at 0.02 mg [3] | mortality at 20 mg/m2 ([8]; application rate 20 mg/m^2, exposure 30 minutes) | mortality at 100 mg/m2 ([8]; application rate 100 mg/m^2, exposure 30 minutes) | efficacy (kill in %) [9] | pest or weed control at 500 g/ha ([5]; Spodoptera frugiperda, 168 h, read-out: efficacy)
1 | CON(C)CCOc1ccc(COc2ccc(F)c(-c3cccc(Cl)c3)c2)nc1 [Example 65] | 100% | 100% | 100% | 90% | 100% | 100% |  |  |  |  |  |  | 
2 | CC(C)N(C)CCOc1cnc(COc2cccc3c(Cl)c(Cl)ccc23)c(F)c1 [Example 44] | 100% |  | 100% |  | 100% |  | 100% | 90% |  |  |  |  | 
3 | CN(CCOc1cnc(COc2ccc(F)c(-c3cccc(OC(F)(F)F)c3)c2)c(F)c1)C(C)(C)C [Example 51] |  |  |  |  | 100% | 100% | 83% |  |  |  |  |  | 
4 | CON(C)CCOc1ccc(COc2cccc3c(Cl)c(Cl)ccc23)cn1 [Example 1] | 100% | 100% | 100% | 100% | 100% | 100% | 100% |  |  |  |  |  | 
5 | CON(C)CCOc1cnc(COc2ccc(F)c(-c3cccc(Cl)c3)c2)c(F)c1 [Example 49] | 100% | 100% | 100% | 100% | 100% | 100% | 100% |  |  |  |  |  | 
6 | CON(C)CCOc1ccc(COc2cccc(-c3cccc(OC(F)(F)F)c3)c2)nc1 [Example 64] | 100% | 100% | 100% |  | 83% | 90% | 100% |  |  |  |  |  | 
7 | CON(C)CCOc1ccc(COc2cccc3c(Cl)c(Cl)ccc23)nc1F [Example 17, 2-[(6-{[(5,6-dichloro-1-naphthyl)oxy]methyl}-2-fluoropyridin-3-yl)oxy]-N-methoxy-N-methylethanamine] |  |  |  |  |  |  |  |  | 100% | 80 to 100% | 80 to 100% |  | 
8 | CON(C)CCOc1cnc(COc2ccc(Cl)c(-c3cccc(Cl)c3)c2)c(F)c1 [Example 56] | 100% | 100% | 100% | 100% | 100% | 100% | 100% |  |  |  |  |  | 
9 | CN(CCOc1cnc(COc2ccc3oc4ccccc4c3c2)c(F)c1)C(C)(C)C [Example 34] |  |  | 80% |  | 100% | 90% | 100% |  |  |  |  |  | 
10 | CN(CC#N)CCOc1cnc(COc2ccc(Cl)c3ccccc23)c(F)c1 [Example 27] |  | 100% | 100% |  | 100% | 90% | 100% |  |  |  |  |  | 
11 | CON(C)CCOc1cnc(COc2ccc(Cl)c(OC(F)(F)F)c2)c(F)c1 [Example 72] | 100% | 100% | 100% | 100% | 83% | 100% |  |  |  |  |  | 95% | 
12 | CON(C)CCOc1cnc(COc2cccc(-c3ccccc3)c2)c(F)c1 [Example 70] | 100% | 100% | 100% | 100% |  | 90% | 100% |  |  |  |  |  | 
13 | CON(C)CCOc1ccc(COc2cccc(-c3ccccc3)c2)cn1 [Example 13] | 100% | 100% | 100% |  |  | 90% | 100% |  |  |  |  |  | 
14 | CCN(CC)CCOc1cnc(COc2cccc3c(Cl)c(Cl)ccc23)c(F)c1 [Example 32, 2-[(6-{[(5,6-dichloro-1-naphthyl)oxy]methyl}-5-fluoropyridin-3-yl)oxy]-N,N-diethylethanamine] | 100% |  |  |  |  | 90% |  |  | 100% |  |  |  | 100%
15 | CON(C)CCOc1cnc(COc2ccc(Cl)c(I)c2)c(F)c1 [Example 76] | 100% | 100% | 100% |  |  |  | 100% | 90% |  |  |  |  | 
